Experiments:
[1] = system: IFNα activation of STAT1 in PBMC; assay: IFNα activation of STAT1 in PBMC; format: cell-based; conditions: Homo sapiens; IFNα activation of STAT1 in PBMC; average IC50; read-out: IFNα signaling inhibitory potency IC50
In short: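 Human PBMC, with red cells lysed by NH4Cl, were pre-treated with compound for 30 min at 37 °C and 5% CO2. They were then stimulated for 30 min with recombinant human IFNα at 5 ng/mL final.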

[2] = biological target: T1, Recombinant human JAK2 (catalytic domain, amino acids 808-1132) (Homo sapiens, UniProt O60674); assay: JAK2 inhibition assay; format: biochemical; conditions: read-out: JAK2 potency IC50; further: 0.7 µM ATP
T1 construct: catalytic domain, amino acids 808-1132
Experimental: (§1) After 60 min at room temperature, reactions are stopped by adding 20 μL/well of detection mixture (1× detection buffer (Perkin Elmer, catalog number CR97-100) with 0.5 nM Europium-anti-phosphotyrosine (PT66) (Perkin Elmer, catalog number AD0068/AD0069) and 10 mM EDTA). […] Kinase activity is calculated by subtracting the ratio obtained in the presence of a positive control inhibitor (1 μM staurosporine) from the ratio obtained in the presence of vehicle. The ability of a test compound to inhibit this activity (or percentage inhibition) is determined as:
(§2) [formula] wherein Fluorescent ratio test compound=ratio RFU665/RFU615*1000 determined for sample with test compound present Fluorescent ratio control=ratio RFU665/RFU615*1000 determined for sample with positive control inhibitor Fluorescent ratio vehicle=ratio RFU665/RFU615*1000 determined in the presence of vehicle
(§3) Dose dilution series are prepared for compound enabling the testing of dose-response effects in the JAK2 assay and the calculation of the IC50 for the compound. Each compound is routinely tested at concentration of 20 μM followed by a 1/5 serial dilution, 10 points in a final concentration of 1% DMSO. […] The data are expressed as the average IC50 from the assays.

[3] = system: IL-12 activation of STAT4 in NK-92 cells; assay: IL-12 activation of STAT4 in NK-92 cells using AphaLISA SureFire technology; format: cell-based; conditions: Homo sapiens, NK92; IL-12 activation of STAT4 in NK-92 cells, AlphaLISA SureFire; average IC50; read-out: IL12 pSTAT4 IC50
In short: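 NK-92 cells, starved of rhIL-2 overnight, were stimulated with rhIL-12 for 30 min at 37 °C with test compounds, then lysed. Phospho-STAT4 (Tyr693) was read by AlphaLISA SureFire. Percent inhibition versus the vehicle-plus-trigger signal was fitted by sigmoidal nonlinear regression to give IC50, averaged over experiments.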

[4] = biological target: Recombinant human JAK3 catalytic domain (amino acids 781-1124) (Homo sapiens, UniProt P52333); assay: JAK3 inhibition assay; format: biochemical
Experimental: After 45 min at 30° C., reactions are stopped by adding 25 μL/well of 150 mM phosphoric acid. […] Plates are washed 6 times with 300 μL per well of a 75 mM phosphoric acid solution and the bottom of the plates is sealed. […] Kinase activity is calculated by subtracting counts per min (cpm) obtained in the presence of a positive control inhibitor (10 μM staurosporine) from cpm obtained in the presence of vehicle. The ability of a test compound to inhibit this activity (or percentage inhibition) is determined as: […]
cpm test compound=cpm determined for sample with test compound present cpm control=cpm determined for sample with positive control inhibitor cpm vehicle=cpm determined in the presence of vehicle
Dose dilution series were prepared for the compounds enabling the testing of dose-response effects in the JAK3 assay and the calculation of the IC50 for each compound. Each compound is routinely tested at concentration of 20 μM followed by a 1/5 serial dilution, 10 points in a final concentration of 1% DMSO.

[5] = biological target: T2, Recombinant human TYK2 catalytic domain (amino acids 871-1187) (Homo sapiens, UniProt P29597); assay: TYK2 radioactive assay polyGT substrate; format: biochemical; further: 0.1 µM ATP
T2 construct: catalytic domain (amino acids 871-1187)
T2 sequence (P29597 871-1187): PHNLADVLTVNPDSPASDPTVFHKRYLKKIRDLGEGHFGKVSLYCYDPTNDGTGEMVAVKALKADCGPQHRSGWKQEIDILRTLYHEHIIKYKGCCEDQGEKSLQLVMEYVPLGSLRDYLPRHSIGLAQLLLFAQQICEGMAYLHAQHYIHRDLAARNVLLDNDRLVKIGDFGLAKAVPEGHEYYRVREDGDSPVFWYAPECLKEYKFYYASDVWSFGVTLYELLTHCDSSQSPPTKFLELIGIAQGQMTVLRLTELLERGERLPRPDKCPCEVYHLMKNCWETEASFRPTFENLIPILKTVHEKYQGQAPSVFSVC
In short: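 Reaction at 30° C. for 120 min, ended with 150 mM phosphoric acid, washed, counted; percent inhibition scaled between vehicle and 10 μM staurosporine cpm.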

[6] = biological target: T3, Recombinant human JAK1 (catalytic domain, amino acids 866-1154) (Homo sapiens, UniProt P23458); assay: JAK1 inhibition assay; format: biochemical; conditions: read-out: JAK1 potency IC50
T3 construct: catalytic domain, amino acids 866-1154
Experimental: as §1, with “CR97-100),” for “CR97-100) with”, “AD0068/AD0069),” for “AD0068/AD0069) and”
as §2
as §3, with “series were” for “series are”, “for the compounds” for “for compound”, “the JAK1” for “the JAK2”

T1 sequence (O60674 808-1132): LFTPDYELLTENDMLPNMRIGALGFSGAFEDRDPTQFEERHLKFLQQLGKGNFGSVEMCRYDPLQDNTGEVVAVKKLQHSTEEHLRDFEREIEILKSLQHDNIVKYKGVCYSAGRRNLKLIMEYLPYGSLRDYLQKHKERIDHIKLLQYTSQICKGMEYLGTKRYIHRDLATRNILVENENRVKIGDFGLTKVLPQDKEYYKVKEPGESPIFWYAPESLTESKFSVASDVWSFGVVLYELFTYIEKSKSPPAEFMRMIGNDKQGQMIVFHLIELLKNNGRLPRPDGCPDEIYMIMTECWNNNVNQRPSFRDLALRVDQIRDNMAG
T3 sequence (P23458 866-1154): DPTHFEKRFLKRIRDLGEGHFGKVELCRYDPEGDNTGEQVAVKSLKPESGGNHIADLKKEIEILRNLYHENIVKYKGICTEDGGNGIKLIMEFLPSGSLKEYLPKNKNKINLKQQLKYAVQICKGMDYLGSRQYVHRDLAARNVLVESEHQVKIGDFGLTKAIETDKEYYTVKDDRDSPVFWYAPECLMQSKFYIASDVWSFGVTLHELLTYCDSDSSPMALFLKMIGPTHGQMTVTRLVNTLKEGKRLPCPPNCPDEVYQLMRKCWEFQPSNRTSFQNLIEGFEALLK
Recombinant human JAK3 catalytic domain (amino acids 781-1124), sequence (P52333 781-1124): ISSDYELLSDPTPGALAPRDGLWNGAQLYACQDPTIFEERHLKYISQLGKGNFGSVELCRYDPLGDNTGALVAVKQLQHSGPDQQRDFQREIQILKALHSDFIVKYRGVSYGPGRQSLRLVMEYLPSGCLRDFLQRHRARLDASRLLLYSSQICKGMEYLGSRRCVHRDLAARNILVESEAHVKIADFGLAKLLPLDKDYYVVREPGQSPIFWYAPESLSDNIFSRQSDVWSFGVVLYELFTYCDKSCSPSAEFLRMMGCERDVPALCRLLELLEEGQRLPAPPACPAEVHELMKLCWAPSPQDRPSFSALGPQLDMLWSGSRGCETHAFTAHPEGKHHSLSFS

SMILES | IC50 [2] | IC50 [3] | IC50 [4] | IC50 [5] | IC50 [6] | IC50 [1]
Cn1cnc2c(Nc3ccc(S(C)(=O)=O)cn3)cc(OC(C3CC3)C(F)(F)F)nc21 (centres unmarked) [Compound 22, 5-(1-cyclopropyl-2,2,2-trifluoro-ethoxy)-3-methyl-N-(5-methylsulfonyl-2-pyridyl)imidazo[4,5-b]pyridin-7-amine] | 3.35 nM | 22 nM | 97.9 nM | 3.07 nM | 23 nM | 50 nM
Cc1cc(C#N)ncc1Oc1cc(Nc2cnn(C)c2)c2ncn(C)c2n1 [Compound 61, 4-methyl-5-[3-methyl-7-[(1-methylpyrazol-4-yl)amino]imidazo[4,5-b]pyridin-5-yl]oxy-pyridine-2-carbonitrile] | 58.4 nM | 221 nM | 1110 nM | 10.3 nM | 60.3 nM | 112 nM
COc1ccc(Nc2cc(Oc3cnc(C#N)cc3C)nc3c2ncn3C)nc1 [Compound 84, 5-[7-[(5-methoxypyridin-2-yl)amino]-3-methylimidazo[4,5-b]pyridin-5-yl]oxy-4-methylpyridine-2-carbonitrile] | 45.5 nM | 87 nM | 908 nM | 11 nM | 57.1 nM | 178 nM
COC1CC(Nc2cc(Nc3cc(Oc4cnc(C#N)cc4C)nc4c3ncn4C)ncn2)C1 (centres unmarked) [Compound 36, 5-{7-[6-(3-Methoxy-cyclobutylamino)-pyrimidin-4-ylamino]-3-methyl-3H-imidazo[4,5-b]pyridin-5-yloxy}-4-methyl-pyridine-2-carbonitrile] | 9.17 nM | 50 nM | 417 nM | 1.41 nM | 40.5 nM | 79 nM
CN(c1cc(Nc2cc(N)ncn2)c2ncn(C)c2n1)[C@@H]1CCC[C@@H](C#N)C1 (racemic) [Compound 13, (±)-(1R,3R)-3-{[7-(6-Amino-pyrimidin-4-ylamino)-3-methyl-3H-imidazo[4,5-b]pyridin-5-yl]-methyl-amino}-cyclohexanecarbonitrile] | 3.16 nM |  | 9.66 nM | 1.92 nM | 24.4 nM | 
COCCCNc1cc(Nc2cc(Oc3cnc(C#N)cc3C)nc3c2ncn3C)ncn1 [Compound 32, 5-{7-[6-(3-Methoxy-propylamino)-pyrimidin-4-ylamino]-3-methyl-3H-imidazo[4,5-b]pyridin-5-yloxy}-4-methyl-pyridine-2-carbonitrile] | 26.2 nM |  | 601 nM | 6.08 nM | 117 nM | 
Cc1cc(C#N)ncc1Nc1cc(Nc2ccc(C(=O)N(C)C)nn2)c2ncn(C)c2n1 [Compound 76, 6-[[5-[(6-cyano-4-methyl-3-pyridyl)amino]-3-methyl-imidazo[4,5-b]pyridin-7-yl]amino]-N,N-dimethyl-pyridazine-3-carboxamide] | 19.9 nM |  | 579 nM | 6.71 nM | 200 nM | 

The next lines start with results.

IC50 [2] | IC50 [3] | IC50 [4] | IC50 [5] | IC50 [6] | SMILES | IC50 [1]
29.1 nM | 968 nM | 2110 nM | 8.88 nM | 107 nM | Cc1cc(C#N)ncc1Oc1cc(Nc2ccc(C(=O)N3CC(O)C3)nn2)c2ncn(C)c2n1 [Compound 115, 5-[7-[[6-(3-hydroxyazetidine-1-carbonyl)pyridazin-3-yl]amino]-3-methyl-imidazo[4,5-b]pyridin-5-yl]oxy-4-methyl-pyridine-2-carbonitrile] | 144 nM
29.7 nM |  | 1050 nM | 5.53 nM | 310 nM | Cc1cc(C#N)ncc1Oc1cc(Nc2ccc(C(=O)N3CC(C(C)(C)O)C3)nn2)c2ncn(C)c2n1 [Compound 111, 5-[7-[[6-[3-(1-hydroxy-1-methyl-ethyl)azetidine-1-carbonyl]pyridazin-3-yl]amino]-3-methyl-imidazo[4,5-b]pyridin-5-yl]oxy-4-methyl-pyridine-2-carbonitrile] | 123 nM
22.2 nM | 241 nM | 257 nM | 6.27 nM | 77.2 nM | Cc1cc(C#N)ncc1Oc1cc(Nc2cnn(CCN3CCOCC3)c2)c2ncn(C)c2n1 [Compound 186, 4-methyl-5-[3-methyl-7-[[1-(2-morpholinoethyl)pyrazol-4-yl]amino]imidazo[4,5-b]pyridin-5-yl]oxy-pyridine-2-carbonitrile] | 229 nM
28.3 nM | 79 nM | 1200 nM | 5.41 nM | 151 nM | COC1CN(C(=O)c2ccc(Nc3cc(Oc4cnc(C#N)cc4C)nc4c3ncn4C)nn2)C1 [Compound 116, 5-[7-[[6-(3-methoxyazetidine-1-carbonyl)pyridazin-3-yl]amino]-3-methyl-imidazo[4,5-b]pyridin-5-yl]oxy-4-methyl-pyridine-2-carbonitrile] | 113 nM
10.5 nM | 154 nM | 479 nM | 4.81 nM | 30.4 nM | Cc1cc(C#N)ncc1Oc1cc(Nc2ccc(N3CCOC[C@@H]3C)cn2)c2ncn(C)c2n1 [Compound 85, 4-methyl-5-[3-methyl-7-[[5-[(3S)-3-methylmorpholin-4-yl]pyridin-2-yl]amino]imidazo[4,5-b]pyridin-5-yl]oxypyridine-2-carbonitrile] | 115 nM
36.9 nM |  | 396 nM | 7.08 nM | 151 nM | Cc1cc(C#N)ncc1Oc1cc(Nc2ccc(N3CCC(N(C)C)CC3)cn2)c2ncn(C)c2n1 [Compound 181, 5-[7-[[5-[4-(dimethylamino)-1-piperidyl]-2-pyridyl]amino]-3-methyl-imidazo[4,5-b]pyridin-5-yl]oxy-4-methyl-pyridine-2-carbonitrile] | 
23.7 nM |  | 673 nM | 5.64 nM | 33.8 nM | Cc1cc(C#N)ncc1Oc1cc(Nc2ccc(C(=O)NC3CCC(O)C3)cn2)c2ncn(C)c2n1 (racemic) [Compound 139, 6-[[5-(6-cyano-4-methylpyridin-3-yl)oxy-3-methylimidazo[4,5-b]pyridin-7-yl]amino]-N-[rac-(1R,3R)-3-hydroxycyclopentyl]pyridine-3-carboxamide] | 
76.4 nM |  | 721 nM | 17.2 nM | 165 nM | Cc1cc(C#N)ncc1Oc1cc(Nc2ccc(N3CCC(N(C)C)C3)cn2)c2ncn(C)c2n1 (centres unmarked) [Compound 182, 5-[7-[[5-[3-(dimethylamino)pyrrolidin-1-yl]-2-pyridyl]amino]-3-methyl-imidazo[4,5-b]pyridin-5-yl]oxy-4-methyl-pyridine-2-carbonitrile] | 

Reference: US11564923B2, “Compounds and pharmaceutical compositions thereof for the treatment of inflammatory disorders” (Galapagos NV, priority 2017, dated 2023)
